Reference: ChEMBL document CHEMBL5726074, “Histone demethylase inhibitors” (2017)

Key:
[1] = molecular target: T1, Lysine-specific demethylase 4C (Homo sapiens, UniProt Q9H3R0); assay: Enzymatic Assay: The ability of test compounds to inhibit the activity of JMJD2C was determined in 384-well plate format under the following reaction conditions: 0.3 nM JMJD2C, 300 nM H3K9me3-biotin labeled peptide (Anaspec cat #64360), 2 μM alpha-ketoglutaric acid in assay buffer of 50 mM HEPES, pH7.3, 0.005% Brij35, 0.5 mM TCEP, 0.2 mg/ml BSA, 50 μM sodium L-ascorbate, and 2 μM ammonium iron(II) sulfate. Reaction product was determined quantitatively by TR-FRET after the addition of detection reagent Phycolink Streptavidin-allophycocyanin (Prozyme) and Europium-anti-di-methylated histone H3 lysine 9 (H3K9me2) antibody (PerkinElmer) in the presence of 5 mM EDTA in LANCE detection buffer (PerkinElmer) at a final concentration of 50 nM and 1 nM, respectively.The assay reaction was initiated by the following: 2 μl of the mixture of 900 nM H3K9me3-biotin labeled peptide and 6 μM alpha-ketoglutaric acid with 2 μl of 11-point serial diluted inhibitor in 3% DMSO were added to each well of the plate, followed by the addition of 2 μl of 0.9 nM JMJD2C to initiate the reaction. The reaction mixture was incubated at room temperature for 30 minutes, and terminated by the addition of 6 μl of 5 mM EDTA in LANCE detection buffer containing 100 nM Phycolink Streptavidin-allophycocyanin and 2 nM Europium-anti-H3K9me2 antibody. […]
T1 sequence (Q9H3R0 whole entry): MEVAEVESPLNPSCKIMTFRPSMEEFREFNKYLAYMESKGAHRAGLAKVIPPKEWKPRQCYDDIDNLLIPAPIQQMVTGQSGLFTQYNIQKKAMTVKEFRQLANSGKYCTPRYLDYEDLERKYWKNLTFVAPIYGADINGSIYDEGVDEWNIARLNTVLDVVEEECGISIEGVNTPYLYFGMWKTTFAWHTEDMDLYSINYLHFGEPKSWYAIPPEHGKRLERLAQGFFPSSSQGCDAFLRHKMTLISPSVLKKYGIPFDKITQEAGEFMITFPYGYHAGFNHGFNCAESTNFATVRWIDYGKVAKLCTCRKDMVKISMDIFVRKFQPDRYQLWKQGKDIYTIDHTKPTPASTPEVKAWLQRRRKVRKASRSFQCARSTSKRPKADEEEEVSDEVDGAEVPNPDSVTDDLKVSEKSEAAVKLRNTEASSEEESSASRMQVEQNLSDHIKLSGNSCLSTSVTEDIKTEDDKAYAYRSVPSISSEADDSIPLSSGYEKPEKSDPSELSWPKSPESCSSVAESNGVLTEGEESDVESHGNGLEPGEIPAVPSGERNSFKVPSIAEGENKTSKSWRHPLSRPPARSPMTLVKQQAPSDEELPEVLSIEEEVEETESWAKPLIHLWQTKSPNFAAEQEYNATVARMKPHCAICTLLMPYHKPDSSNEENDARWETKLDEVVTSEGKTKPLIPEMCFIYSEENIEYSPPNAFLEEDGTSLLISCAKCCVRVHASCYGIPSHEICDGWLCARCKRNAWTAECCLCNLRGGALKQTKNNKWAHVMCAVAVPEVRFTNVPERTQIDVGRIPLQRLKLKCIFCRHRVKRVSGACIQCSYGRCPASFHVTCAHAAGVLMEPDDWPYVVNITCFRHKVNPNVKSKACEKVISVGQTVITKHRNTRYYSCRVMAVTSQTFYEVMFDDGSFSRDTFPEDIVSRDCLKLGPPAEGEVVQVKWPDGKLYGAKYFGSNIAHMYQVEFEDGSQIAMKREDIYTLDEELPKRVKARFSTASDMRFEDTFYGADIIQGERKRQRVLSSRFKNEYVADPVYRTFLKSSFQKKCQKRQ

[2] = molecular target: Lysine-specific demethylase 5B (Homo sapiens, UniProt Q9UGL1); assay: Enzymatic Assay: The ability of test compounds to inhibit the activity of Jarid1B was determined in 384-well plate format under the following reaction conditions: 0.8 nM Jarid1B, 300 nM H3K4me3-biotin labeled peptide (Anaspec cat #64357), 2 μM alpha-ketoglutaric acid in assay buffer of 50 mM HEPES, pH7.3, 0.005% Brij35, 0.5 mM TCEP, 0.2 mg/ml BSA, 50 μM sodium L-ascorbate, and 2 μM ammonium iron(II) sulfate. Reaction product was determined quantitatively by TR-FRET after the addition of detection reagent Phycolink Streptavidin-allophycocyanin (Prozyme) and Europium-anti-mono- or di-methylated histone H3 lysine 4 (H3K4me1-2) antibody (PerkinElmer) in the presence of 5 mM EDTA in LANCE detection buffer (PerkinElmer) at a final concentration of 25 nM and 1 nM, respectively.The assay reaction was initiated by the following: 2 μl of the mixture of 900 nM H3K4me3-biotin labeled peptide and 6 μM alpha-ketoglutaric acid with 2 μl of 11-point serial diluted inhibitor in 3% DMSO was added to each well of the plate, followed by the addition of 2 μl of 2.4 nM Jarid1B to initiate the reaction. The reaction mixture was incubated at room temperature for 30 minutes, and terminated by the addition of 6 μl of 5 mM EDTA in LANCE detection buffer containing 50 nM Phycolink Streptavidin-allophycocyanin and 2 nM Europium-anti-H3K4me1-2 antibody. […]
Chain of Lysine-specific demethylase 5B (Q9UGL1 whole entry): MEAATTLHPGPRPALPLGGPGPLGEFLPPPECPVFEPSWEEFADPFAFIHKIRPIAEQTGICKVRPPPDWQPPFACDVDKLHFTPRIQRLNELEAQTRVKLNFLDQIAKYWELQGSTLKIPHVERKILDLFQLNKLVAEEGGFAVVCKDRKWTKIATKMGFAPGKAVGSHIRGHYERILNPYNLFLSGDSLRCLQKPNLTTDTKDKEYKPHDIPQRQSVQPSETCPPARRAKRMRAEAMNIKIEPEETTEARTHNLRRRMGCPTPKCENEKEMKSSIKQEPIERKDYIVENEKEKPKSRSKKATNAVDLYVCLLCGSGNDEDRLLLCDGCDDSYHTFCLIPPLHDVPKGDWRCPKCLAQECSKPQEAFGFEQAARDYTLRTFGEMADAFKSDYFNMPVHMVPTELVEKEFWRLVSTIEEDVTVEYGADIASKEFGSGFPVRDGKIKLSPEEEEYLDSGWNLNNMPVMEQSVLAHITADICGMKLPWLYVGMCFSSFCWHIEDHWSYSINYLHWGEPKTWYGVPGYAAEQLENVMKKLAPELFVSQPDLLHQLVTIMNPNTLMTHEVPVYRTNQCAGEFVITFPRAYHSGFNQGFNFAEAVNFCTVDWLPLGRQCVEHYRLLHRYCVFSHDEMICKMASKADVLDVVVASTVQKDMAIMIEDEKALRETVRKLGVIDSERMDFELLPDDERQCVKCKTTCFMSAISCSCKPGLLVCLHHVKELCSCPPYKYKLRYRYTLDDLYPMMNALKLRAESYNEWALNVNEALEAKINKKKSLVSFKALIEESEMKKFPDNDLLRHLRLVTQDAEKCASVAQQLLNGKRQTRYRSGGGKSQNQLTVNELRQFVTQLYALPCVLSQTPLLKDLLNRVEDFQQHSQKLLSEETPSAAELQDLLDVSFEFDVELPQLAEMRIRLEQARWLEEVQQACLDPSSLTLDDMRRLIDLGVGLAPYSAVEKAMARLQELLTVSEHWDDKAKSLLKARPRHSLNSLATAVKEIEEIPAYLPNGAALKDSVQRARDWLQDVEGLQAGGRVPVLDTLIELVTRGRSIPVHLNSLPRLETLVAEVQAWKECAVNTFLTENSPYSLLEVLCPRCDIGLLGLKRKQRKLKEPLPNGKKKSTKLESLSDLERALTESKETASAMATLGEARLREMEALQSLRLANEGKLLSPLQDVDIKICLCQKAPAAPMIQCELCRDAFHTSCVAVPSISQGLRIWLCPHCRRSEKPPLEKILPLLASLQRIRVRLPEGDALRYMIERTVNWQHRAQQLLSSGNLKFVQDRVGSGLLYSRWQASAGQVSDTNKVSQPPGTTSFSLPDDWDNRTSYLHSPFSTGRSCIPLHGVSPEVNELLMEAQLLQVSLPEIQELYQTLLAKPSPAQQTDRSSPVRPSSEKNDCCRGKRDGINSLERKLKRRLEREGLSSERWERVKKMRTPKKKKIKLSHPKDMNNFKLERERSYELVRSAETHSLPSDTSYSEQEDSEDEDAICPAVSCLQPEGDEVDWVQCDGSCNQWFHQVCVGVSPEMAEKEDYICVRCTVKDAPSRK

[3] = molecular target: Lysine-specific demethylase 5A (Homo sapiens, UniProt P29375); assay: Enzymatic Assay: The enzymatic assay of Jarid1A activity is based upon Time Resolved-Fluorescence Resonance Energy Transfer (TR-FRET) detection. The ability of test compounds to inhibit the activity of Jarid1A was determined in 384-well plate format under the following reaction conditions: 1 nM Jarid1A, 300 nM H3K4me3-biotin labeled peptide (Anaspec cat #64357), 2 μM alpha-ketoglutaric acid in …
Chain of Lysine-specific demethylase 5A (P29375 whole entry): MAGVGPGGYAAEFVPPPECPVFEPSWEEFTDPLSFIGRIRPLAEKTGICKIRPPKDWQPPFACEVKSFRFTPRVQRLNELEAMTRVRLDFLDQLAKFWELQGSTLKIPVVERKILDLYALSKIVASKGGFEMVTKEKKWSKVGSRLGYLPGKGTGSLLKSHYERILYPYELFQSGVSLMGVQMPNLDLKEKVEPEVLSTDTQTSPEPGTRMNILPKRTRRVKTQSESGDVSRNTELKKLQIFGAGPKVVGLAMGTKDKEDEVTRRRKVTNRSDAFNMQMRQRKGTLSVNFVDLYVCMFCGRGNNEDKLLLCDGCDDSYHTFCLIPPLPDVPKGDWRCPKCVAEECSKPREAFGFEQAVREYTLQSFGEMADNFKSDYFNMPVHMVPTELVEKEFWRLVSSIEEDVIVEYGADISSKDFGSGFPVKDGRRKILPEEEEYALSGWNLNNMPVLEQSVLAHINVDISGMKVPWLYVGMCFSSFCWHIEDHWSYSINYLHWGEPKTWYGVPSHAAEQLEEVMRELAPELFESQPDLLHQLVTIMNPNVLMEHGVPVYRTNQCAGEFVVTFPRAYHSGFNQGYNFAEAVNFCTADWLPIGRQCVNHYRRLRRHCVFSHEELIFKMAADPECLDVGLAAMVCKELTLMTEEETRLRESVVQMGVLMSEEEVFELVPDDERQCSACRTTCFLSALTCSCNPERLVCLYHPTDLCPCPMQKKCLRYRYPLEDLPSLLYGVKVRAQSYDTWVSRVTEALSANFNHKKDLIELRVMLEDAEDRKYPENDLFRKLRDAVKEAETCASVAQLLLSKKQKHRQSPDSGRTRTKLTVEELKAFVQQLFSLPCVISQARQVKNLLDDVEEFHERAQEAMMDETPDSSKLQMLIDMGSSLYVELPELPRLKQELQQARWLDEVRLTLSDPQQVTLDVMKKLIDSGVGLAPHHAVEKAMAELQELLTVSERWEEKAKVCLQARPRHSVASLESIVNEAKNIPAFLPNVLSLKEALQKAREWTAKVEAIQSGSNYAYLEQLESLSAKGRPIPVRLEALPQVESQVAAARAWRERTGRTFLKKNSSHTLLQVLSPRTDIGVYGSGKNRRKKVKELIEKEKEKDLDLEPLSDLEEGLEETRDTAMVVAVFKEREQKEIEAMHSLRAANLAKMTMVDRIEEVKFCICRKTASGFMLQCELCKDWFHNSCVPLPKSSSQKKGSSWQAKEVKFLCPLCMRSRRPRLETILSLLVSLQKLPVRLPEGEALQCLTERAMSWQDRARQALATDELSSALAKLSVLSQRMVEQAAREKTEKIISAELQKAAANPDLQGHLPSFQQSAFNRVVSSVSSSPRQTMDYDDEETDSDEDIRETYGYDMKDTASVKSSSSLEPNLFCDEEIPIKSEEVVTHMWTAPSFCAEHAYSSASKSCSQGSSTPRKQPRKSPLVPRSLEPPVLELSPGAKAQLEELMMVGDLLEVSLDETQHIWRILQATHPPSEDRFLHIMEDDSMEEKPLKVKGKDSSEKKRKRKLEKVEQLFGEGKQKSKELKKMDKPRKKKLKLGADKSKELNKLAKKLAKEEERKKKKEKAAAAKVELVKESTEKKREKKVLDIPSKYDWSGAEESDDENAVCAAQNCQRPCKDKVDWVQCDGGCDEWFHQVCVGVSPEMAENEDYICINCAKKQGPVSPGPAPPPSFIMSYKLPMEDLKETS

Measured: IC50

O=C(O)c1ccncc1NCC1CCc2ccccc21 (stereo not drawn)
< 100 nM: all assays above
